Experimental data reported in patent US6593299B1, “Compositions and methods for controlling pests” (priority 1999, dated 2003).
Ends that are not written are not given here. Peptide text beside a SMILES is read from it.

Columns and labels:
[1] = tested on: trypsin biosynthesis in the midgut of female Aedes aegypti; assay: NPF injected into blood-fed whole female mosquitoes, midgut trypsin biosynthesis; format: in vivo; conditions: whole blood-fed females, injected 0.25 μl at 10^−6 M, midguts assayed 30 hours later
Protocol: To determine whether NPF I and II affect trypsin biosynthesis in the midgut of female Aedes aegypti, females were fed a blood meal and immediately injected with 0.25 μl of the peptide at concentrations of 2.5 μg to 12.5 pg and 30 hours later the midguts were removed and assayed for trypsin biosynthesis (Borovsky et al., 1990 “Mosquito Oostatic Factor: A Novel Decapeptide Modulating Trypsin-Like Enzyme Biosynthesis in the Midgut” FASEB J. 4:3015-3020; Borovsky et al. 1993 “Mass Spectrometry and Characterization of Aedes aegypti Trypsin Modulating Oostatic Factor (TMOF) and its Analog” Insect Biochem. Molec. Biol. 23:703-712). Each experiment was repeated 3 times (5 females per group) and the results are expressed as % inhibition of trypsin biosynthesis±S.E.M. (FIG. 1).

[2] = biological target: TMOF receptor (mosquito gut receptor) (Aedes aegypti); assay: cell-based or functional assay
Aedes aegypti larvae = assay: Feeding TMOF and analog peptides to mosquito larvae (LD50); format: in vivo; conditions: newly hatched larvae on autoclaved yeast 1 mg/ml, peptide 0 to 5.0 mg/ml, microtiter plates, 7 days
Text: TMOF can traverse the gut epithelium, enter the hemolymph and bind a gut receptor (Borovsky, D. and F. Mahmood (1995) “Feeding the mosquito Aedes aegypti with TMOF and its analogs; effect on trypsin biosynthesis and egg development,” Regulatory Peptides 57:273-281.; Borovsky et al. (1994) “Characterization and localization of mosquito-gut receptors for trypsin modulating oostatic factor using complementary peptide immunochemistry”FASEB J. 8:350-355.). This characteristic permits the testing of TMOF and its analogues by feeding them to mosquito and other pest larvae. To find out if truncated TMOF peptides have an effect on larval growth and development, a series of peptides were synthesized and tested by feeding them to mosquito larvae at concentrations of 0 to 5.0 mg/ml (Table 2). Individual, newly hatched Aedes aegypti larvae were maintained in separate microtiter plate wells on a diet of autoclaved yeast (1 mg/ml). The diet was supplemented with TMOF peptides (Table 2). An identical number of larvae maintained on yeast served as a control. […] All control groups survived and larval growth and development was normal. Since larvae swallow only a small portion of the yeast particles adsorbed the peptides, it is assumed that approximately 1 to 20 ng are taken orally at the high concentrations.

[3] = tested on: fourth instar Heliothis virescens; assay: Feeding TMOF analogs to fourth instar H. virescens: larval weight; format: in vivo; conditions: fourth instar larvae; for Weight Gain: 0.8 mg of analogue, 5 days; for Weight mg ± S.E.M. End: synthetic food and 0.8 mg of analogue, after 5 days; for Weight mg ± S.E.M. Start: weight before feeding (baseline)
Protocol: (§1) Several analogues were chosen and were fed to fourth instar Heliothis virescens for seven (7) days and to first instars for fourteen (14) days (Tables 3 and 4). In both cases a reduction in weight gain and trypsin inhibition was noted (Tables 3 and 4).
(§2) Individual first instar and fourth instar larvae of H. virescens were maintained in separate plastic cups and were fed on artificial diet blocks on which different concentrations of TMOF (0 to 1.6 mg) were adsorbed. Larvae were fed for 5 to 14 days and larval weight and trypsin activity were measured at the end of the experimental periods. […] When first instar larvae were fed for 14 days, an 18% and 26% reduction in weight was observed when analogues 15 and 16 were used (Table 4).
Fourth instar larvae were weighed and fed on synthetic food and 0.8 mg of TMOF analogues for 5 days. […]. Results are average of 3 to 10 experiments S.E.M.

TTLE biosynthesis = assay: Feeding TMOF analogs to fourth instar H. virescens: gut trypsin (TTLE) biosynthesis by [3H]DFP; format: in vivo, Heliothis virescens; parameters: Trypsin: unit not given here; conditions: fourth instar larvae, 0.8 mg of analogue, 5 days; for Trypsin: guts incubated with [3H]DFP; for Inhibition (trypsin): versus control
[4] = tested on: first instar Heliothis virescens; assay: Feeding first instar H. virescens on TMOF analogs for 14 days; format: in vivo; parameters: Weight Reduction ± S.E.M.: concentration or dose not given beside the values; conditions: first instar larvae fed 14 days; for Weight Reduction ± S.E.M.: versus control
Protocol: as §1, §2

| Molecule | % inhibition of trypsin biosynthesis [1] [%] | inhibition of trypsin biosynthesis (ligated abdomens of blood-fed female Aedes aegypti, 30 h after injection) (% inhibition at 10^-6 M) [2] | LD50 + S.E.M. (Aedes aegypti larvae) [mM] | Weight Gain [3] [mg] | Weight mg ± S.E.M. End [3] [mg] | Weight mg ± S.E.M. Start [3] [mg] | Trypsin (TTLE biosynthesis) | Inhibition (trypsin) (TTLE biosynthesis) [%] | Number of Dead Larvae [4] | Weight ± S.E.M. [4] [mg] | Weight Reduction ± S.E.M. [4] [%] |
| --- | --- | --- | --- | --- | --- | --- | --- | --- | --- | --- | --- |
| Ala-Pro-Ser-Arg-Leu-Arg-Phe-amide (APSRLRF-NH2) [NPF II] | 35 |  |  |  |  |  |  |  |  |  |  |
| NPF I (Ala-Arg-Gly-Pro-Gln-Leu-Arg-Leu-Arg-Phe-amide) (peptide) |  | 54 |  |  |  |  |  |  |  |  |  |
| N[C@@H](Cc1ccc(O)cc1)C(=O)N[C@@H](CC(=O)O)C(=O)N1CCC[C@H]1C(=O)O [34. YDP, YDP] (H-Tyr-Asp-Pro-OH; N-terminus and C-terminus assumed) |  |  | 2.3 ± 0.4 | 186.3 | 223.4 ± 16 | 37 ± 1.5 | 2.1 ± 0.3 | 19 ± 3.2 | 0 | 157 ± 10 | 4 ± 0.2 |
| N[C@@H](CC(=O)O)C(=O)N[C@@H](Cc1ccc(O)cc1)C(=O)N1CCC[C@H]1C(=O)O [31. DYP, DYP] (H-Asp-Tyr-Pro-OH; N-terminus and C-terminus assumed) |  |  | 1.27 ± 0.17 | 180.5 | 216.7 ± 13 | 36.2 ± 2.4 | 2.2 ± 0.3 | 14 ± 1.8 | 1 | 149 ± 9 | 9 ± 0.5 |
| YDPGP [16. YDPGP, YDPGP] |  |  | 1.1 ± 0.18 | 163.1 | 199.8 ± 11 | 31.7 ± 1.6 | 2.1 ± 0.1 | 17 ± 1 | 2 | 153 ± 10 | 6 ± 0.4 |
